Laboratory results published in patent US20190375778A1, “ADENOSINE DERIVATIVES FOR USE IN THE TREATMENT OF CANCER” (NuCana plc, priority 2016, published 2019).
pIC50: −log10 of the molar value.

What was measured:
FM3A = experiment: Cytotoxicity, FM3A; format: cell-based, murine; details: Mus musculus, read-out: absolute IC50, FM3A
Description: (§1) Lovo: cell line derived from a metastatic site in a patient with colon cancer MCF7: human oestrogen sensitive mammary epithelial cell line PC3: human prostate cancer cell line A549: cancerous lung tissue derived cells L1210: lymphoblast cell line derived from a mouse with lymphocytic leukaemia FM3A: mammary carcinoma murine cells CEM: human T-lymphoblasts, derived from the blood of a patient with acute lymphoblastic leukaemia HeLa: epithelial cells from a patient with cervical adenocarcinoma

[1] = test system: human cervix carcinoma HeLa cells; experiment: Cell proliferation (Coulter count) assay, HeLa; format: cell-based; details: 120 h, cell count on day 5, read-out: absolute IC50, HeLa
Description: as §1
(§2) Murine leukemia L1210, human T-lymphocyte CEM, and human cervix carcinoma HeLa cells were obtained from the American Type Culture Collection (ATCC) (Rockville, Md.). All cells were maintained in Dulbecco's modified Eagle's medium (DMEM) (Invitrogen, Carlsbad, Calif.) with 10% fetal bovine serum (FBS) (Biochrom AG, Berlin, Germany), 10 mM Hepes, and 1 mM sodiumpyruvate (Invitrogen). Cells were grown at 37° C. in a humidified incubator with a gas phase of 5% CO2. Monolayer cells (HeLa and […]) were seeded in 96-well microtiter plates (Nunc, Roskilde, Denmark) at 10 000 cells/well. After 24 h, an equal volume of fresh medium containing the test compounds was added. On day 5, cells were trypsinized and counted in a Coulter counter (Analis, Suarlee, Belgium). Suspension cells (L1210, CEM) were seeded in 96-well microtiter plates (Nunc) at 60 000 cells/well in the presence of a given amount of the test compounds. The cells were allowed to proliferate for 48 h (L1210) or 72 h (CEM) and were then counted in a Coulter counter. The 50% inhibitory concentration (IC50) was defined as the compound concentration required to reduce cell proliferation by 50%. The cytostatic activity of the compounds was determined after 3 days, as outlined above.

Murine leukemia L1210 = experiment: Cell proliferation (Coulter count) assay, L1210; format: cell-based; details: Mus musculus, 48 h, read-out: absolute IC50, L1210
Description: as §1, §2

A549 = experiment: MTT cytotoxicity assay, A549; format: cell-based; details: Homo sapiens, 96 h compound exposure, read-out: absolute IC50, A549
Description: as §1
(§3) Anti-tumour evaluation in MCF7, LoVo, A549 and PC3 cell lines was performed by MTT assay. Compounds were prepared as 0.1-100 mM stock solutions dissolved in DMSO and stored at −20° C. Cells were seeded into 96-well microtitre plates at a density of 5×10^3 cells per well and allowed 24 hours to adhere. Decimal compound dilutions were prepared in medium immediately prior to each assay (final concentration 0.1-100 μM). Experimental medium was DMEM+10% FCS (PC3 and Lovo) or RPMI+10% heat inactivated FCS (A549 and MCF7). Following 96 h compound exposure at 37° C., 5% CO2, MTT reagent (Sigma Aldrich) was added to each well (final concentration 0.5 mg/ml). Incubation at 37° C. for 4 h allowed reduction of MTT by viable cells to an insoluble formazan product. MTT was removed and formazan solubilised by addition of 10% Triton X-100 in PBS. Absorbance was read on a Tecan Sunrise spectrophotometer at 540 nm as a measure of cell viability; thus inhibition relative to control was determined (IC50).

PC3 = experiment: MTT cytotoxicity assay, PC3; format: cell-based; details: Homo sapiens, PC-3, 96 h compound exposure, read-out: absolute IC50, PC3
Description: as §1, §3

Lovo = experiment: MTT cytotoxicity assay, Lovo; format: cell-based; details: Homo sapiens, 96 h compound exposure, read-out: absolute IC50, Lovo
Description: as §1, §3

MCF7 = experiment: MTT cytotoxicity assay, MCF7; format: cell-based; details: Homo sapiens, 96 h compound exposure, read-out: absolute IC50, MCF7
Description: as §1, §3

human T-lymphocyte CEM = experiment: Cell proliferation (Coulter count) assay, CEM; format: cell-based; details: 72 h, read-out: absolute IC50, CEM
Description: as §1, §2

[2] = test system: KG1a leukaemic stem cell compartment (Lin−/CD34+/CD38−/CD123+); experiment: Leukaemic stem cell compartment in KG1a; format: cell-based; details: for Change relative to control (%): % LSC compartment versus the series' control; for KG-1a (CD34+/CD38−/CD123+) % compartment: LSC as percentage of viable cells left, 72 hrs; for targeting of leukaemic/cancer stem cells in words: KG1a, compared to 8-chloroadenosine (FIG. 2, FIG. 8)
Method: (§4) A further comparative analysis of the toxicity of compounds in the KG1a cell line over an extended dose range was carried out, and the relative effect assessed of the compounds on the leukaemic stem cell compartment within the KG1a cell line, across the entire dose range. Thus, experimental tests were performed on certain compounds of the present invention to assess their ability to target cancer stem cells in a leukaemic cell line. The acute myeloid leukaemia (AML) cell line, KG1a, was employed to assess the relative effect of compounds on the stem cell compartment. The KG1a cell line was selected because it manifests a minor stem cell-like compartment with a distinct immunophenotype (Lin^−/CD34^+/CD38^−/CD123^+).
(§5) Cells of the KG1a cell line were maintained in RPMI medium (Invitrogen, Paisley, UK) supplemented with 100 units/ml penicillin, 100 μg/ml streptomycin and 20% foetal calf serum. Cells were subsequently aliquoted (10^5 cells/100 μl) into 96-well plates and were incubated at 37° C. in a humidified 5% carbon dioxide atmosphere for 72 hrs in the presence of nucleoside analogues and their respective nucleotide analogues (known as ProTides) at concentrations that were experimentally determined for each series of compounds. In addition, control cultures were carried out to which no drug was added. Cells were subsequently harvested by centrifugation and were analyzed by flow cytometry using the Annexin V assay.
KG1a cells were cultured for 72 hrs in the presence of a wide range of concentrations of each compound assayed. Cells were then harvested and labelled with a cocktail of anti-lineage antibodies (PE-cy7), anti-CD34 (FITC), anti-CD38 (PE) and anti-CD123 (PERCP cy5). The sub-population expressing a leukaemic stem cell (LSC) phenotype were subsequently identified and were expressed as a percentage of all viable cells left in the culture. The percentages of stem cells remaining were then plotted on a dose-response graph and the effects of the compounds were compared with 8-chloroadenosine.
(§6) The data obtained in these experiments were evaluated using one way ANOVA. All data was confirmed as Gaussian or a Gaussian approximation using the omnibus K2 test. LD50 values were calculated from the non-linear regression and line of best-fit analysis of the sigmoidal dose-response curves. All statistical analyses were performed using Graphpad Prism 6.0 software (Graphpad Software Inc., San Diego, Calif.).

KG1a cell line = experiment: Annexin V/propidium iodide cytotoxicity, KG1a unsorted; format: cell-based; details: for LD50: Homo sapiens, KG-1a, Annexin V/propidium iodide, 72 hrs; for cytotoxic potency compared in words: KG1a, versus 8-chloroadenosine or other isomers (FIG. 1, FIG. 7)
Method: as §4, §5
Cultured cells were harvested by centrifugation and then resuspended in 195 μl of calcium-rich buffer. Subsequently, 5 μl of Annexin V (Caltag Medsystems, Botolph Claydon, UK) was added to the cell suspension and cells were incubated in the dark for 10 mins prior to washing. Cells were finally resuspended in 190 μl of calcium-rich buffer together with 10 μl of propidium iodide. Apoptosis was assessed by dual-colour immunofluorescent flow cytometry as described previously. Subsequently LD50 values (the dose required to kill 50% of the cells in a culture) were calculated for each nucleoside analogue and ProTide.
as §6

HEL92.1.7 = experiment: CellTiterGlo viability assay, HEL92.1.7; format: cell-based; details: Homo sapiens, HEL 92.1.7, 72 h, read-out: IC50 HEL92.1.7
Method: (§7) In vitro viability assay were performed to assess the effects of compounds on cell viability in selected cell lines over ˜72 hrs using the CellTiterGlo (CTG, Promega-G7573) assay. The tests were performed in duplicates with treatment of compounds at 9 points, 3.16 folds titration in 96 well plates over ˜72 hrs. The compound starting concentrations were 198 μM. Cell viability assay using CellTiterGlo in 96-well plate were performed. Compound treatment 72 hrs, standard growth conditions, duplicates. Compounds were dissolved to 40 mM with thawed […]. Compounds were serially diluted at 3.16 fold in thawed DMSO, and warmed to 37° C. before being dissolved in media (2 μl+200 μl). After compounds were dissolved in media, media containing compounds were warmed to 37° C. in incubator and then compounds in media were added to cell plates (50 μl+50 μl) in duplicates. The compounds' final concentrations were from […] to 19.9 nM. All compound solubilities were checked and recorded again, then the plates were transferred to CO2 tissue culture incubator immediately and incubated for 3 days. DMSO final concentration is 0.5%.

HL-60 = experiment: CellTiterGlo viability assay, HL-60; format: cell-based; details: Homo sapiens, HL-60, 72 h, read-out: IC50 HL-60
Method: as §7

RL = experiment: CellTiterGlo viability assay, RL; format: cell-based; details: Homo sapiens, RL, 72 h, read-out: IC50 RL
Method: as §7

MV4-11 = experiment: CellTiterGlo viability assay, MV4-11; format: cell-based; details: Homo sapiens, MV4-11, 72 h, read-out: IC50 MV4-11
Method: as §7

KG-1 = experiment: CellTiterGlo viability assay, KG-1; format: cell-based; details: Homo sapiens, KG-1, 72 h, read-out: IC50 KG-1
Method: as §7

CCRFCEM = experiment: CellTiterGlo viability assay, CCRFCEM; format: cell-based; details: Homo sapiens, CCRF-CEM, 72 h, read-out: IC50 CCRFCEM
Method: as §7

K562 = experiment: CellTiterGlo viability assay, K562; format: cell-based; details: Homo sapiens, K562, 72 h, read-out: IC50 K562
Method: as §7

RPMI-8226 = experiment: CellTiterGlo viability assay, RPMI-8226; format: cell-based, Human; details: Homo sapiens, RPMI-8226, 72 h, read-out: IC50 RPMI-8226
Method: as §7

NCI-H929 = experiment: CellTiterGlo viability assay, NCI-H929; format: cell-based; details: Homo sapiens, NCI-H929, 72 h, read-out: IC50 NCI-H929
Method: as §7

## COC(=O)[C@H](CCSC)NP(=O)(OC[C@H]1O[C@@H](n2c(Cl)nc3c(N)ncnc32)C(O)C1O)Oc1ccccc1 (stereo partly drawn) [Z, 5′-([(Methyloxy-L-methionine-N-yl)phenyl]-phosphatyl) 8-chloroadenosine]
FM3A
  pIC50: < 4.00
[1]
  pIC50: 4.00 to 4.82
Murine leukemia L1210
  pIC50: 4.00 to 4.82
A549
  pIC50: < 4.00
PC3
  pIC50: 4.00 to 4.82
Lovo
  pIC50: 4.00 to 4.82
MCF7
  pIC50: 4.00 to 4.82
Human T-lymphocyte CEM
  pIC50: 4.00 to 4.82

## CC(C)OC(=O)[C@H](C)NP(=O)(OC[C@H]1O[C@@H](n2c(Cl)nc3c(N)ncnc32)C(O)C1O)Oc1ccccc1 (stereo partly drawn) [W, 5′-([(Isopropyloxy-L-alanin-N-yl)-phenyl]-phosphatyl) 8-chloroadenosine]
FM3A
  pIC50: 4.00 to 4.82
[1]
  pIC50: 4.00 to 4.82
Murine leukemia L1210
  pIC50: 4.00 to 4.82
A549
  pIC50: 4.00 to 4.82
PC3
  pIC50: 5.30 to 7.00
Lovo
  pIC50: 5.30 to 7.00
MCF7
  pIC50: 4.00 to 4.82
Human T-lymphocyte CEM
  pIC50: 4.00 to 4.82

## Nc1ncnc2c1nc(Cl)n2[C@@H]1O[C@H](COP(=O)(N[C@@H](Cc2ccccc2)C(=O)OCc2ccccc2)Oc2ccccc2)C(O)C1O (stereo partly drawn) [U, 5′-([(Benzyloxy-L-phenylalanin-N-yl)-phenyl]-phosphatyl) 8-chloroadenosine]
FM3A
  pIC50: 4.00 to 4.82
[1]
  pIC50: 5.30 to 7.00
Murine leukemia L1210
  pIC50: 4.00 to 4.82
A549
  pIC50: 5.30 to 7.00
PC3
  pIC50: 5.30 to 7.00
Lovo
  pIC50: 5.30 to 7.00
MCF7
  pIC50: 5.30 to 7.00
Human T-lymphocyte CEM
  pIC50: 4.82 to 5.30

## C[C@H](NP(=O)(OC[C@H]1O[C@@H](n2cnc3c(N)nc(Cl)nc32)[C@H](F)C1O)Oc1cccc2ccccc12)C(=O)OCc1ccccc1 (some centres unmarked) [Comparative compound 1]
[2]
  Change relative to control (%): −0.2%
  KG-1a (CD34+/CD38−/CD123+) % compartment: 3.3%
KG1a cell line
  LD50: 140 nM

## C[C@H](NP(=O)(OC[C@H]1O[C@@H](n2c(Cl)nc3c(N)ncnc32)[C@H](O)[C@@H]1O)Oc1cccc2ccccc12)C(=O)OCc1ccccc1 (single isomer, unassigned) [Isomer A of Compound D]
[2]
  targeting of leukaemic/cancer stem cells in words: statistically significantly increased ability to target cancer stem cells
KG1a cell line
  cytotoxic potency compared in words: significantly more potent

## Nc1ncnc2c1nc(Cl)n2[C@@H]1O[C@H](COP(=O)(NCC(=O)OCc2ccccc2)Oc2ccccc2)[C@@H](O)[C@H]1O (single isomer, unassigned; isomer a) [Isomer A of Compound B]
[2]
  targeting of leukaemic/cancer stem cells in words: statistically significantly increased ability to target cancer stem cells
KG1a cell line
  cytotoxic potency compared in words: significantly more potent

## C[C@H](NP(=O)(OC[C@H]1O[C@@H](n2c(Cl)nc3c(N)ncnc32)C(O)C1O)Oc1ccccc1)C(=O)OC1CCCCC1 (stereo partly drawn) [X, 5′-([(Cyclohexyloxy-L-alanin-N-yl)-phenyl]-phosphatyl) 8-chloroadenosine]
A549
  pIC50: 4.00 to 4.82
PC3
  pIC50: 5.30 to 7.00
Lovo
  pIC50: 5.30 to 7.00
MCF7
  pIC50: 5.30 to 7.00

## Nc1ncnc2c1nc(Cl)n2[C@@H]1O[C@H](COP(=O)(NCC(=O)OCc2ccccc2)Oc2cccc3ccccc23)C(O)C1O (some centres unmarked) [Compound L, 5′-([(benzylo-yl-glycin-N-yl)-naphth-1-yl]-phosphatyl) 8-chloroadenosine]
[1]
  pIC50: 5.30 to 7.00
HEL92.1.7
  pIC50: 5.30 to 7.00
Murine leukemia L1210
  pIC50: 4.82 to 5.30
HL-60
  pIC50: 4.82 to 5.30
RL
  pIC50: 4.82 to 5.30
MV4-11
  pIC50: 5.30 to 7.00
KG-1
  pIC50: 4.82 to 5.30
CCRFCEM
  pIC50: 4.82 to 5.30
K562
  pIC50: 4.82 to 5.30
RPMI-8226
  pIC50: 5.30 to 7.00
NCI-H929
  pIC50: 4.00 to 4.82
Human T-lymphocyte CEM
  pIC50: 5.30 to 7.00

## C[C@H](NP(=O)(OC[C@H]1O[C@@H](n2cnc3c(N)nc(Cl)nc32)CC1O)Oc1cccc2ccccc12)C(=O)OCc1ccccc1 (some centres unmarked) [Comparative compound 2]
[2]
  Change relative to control (%): −0.5%
  KG-1a (CD34+/CD38−/CD123+) % compartment: 3.5%
KG1a cell line
  LD50: 820 nM
